Data on four molecules can be found in patent US8822526B2, “Synergistic pharmaceutical combination for the treatment of cancer” (Piramal Enterprises Limited, priority 2007, dated 2014).

Each structure is given as a SMILES string. pIC50: −log10 of the molar value.

In data set [1] the test system is human non-small cell lung carcinoma H-460 cells. The experiment in a line: In vitro cytotoxicity assay (MTS). The note with it: for % Cytotoxicity: then complete medium 45 hours. The protocol:
The cytotoxicity assay used was MTS (3-(4,5-dimethylthiazol-2-yl)-5-(3-carboxymethoxyphenyl)-2-(4-sulfophenyl)-2H-tetrazolium, inner salt) assay. The human non-small cell lung carcinoma H-460 cells were seeded at a density of 1500 cells/well in 180 μL of culture medium in 96-well plate and incubated overnight to allow the cells to adhere. Varying concentrations of the drugs contained in the combination were added to the wells and incubated for an appropriate period of time in humidified 5% CO2 incubator at 37° C. in case of a single drug exposure. […] Control wells were treated with a vehicle. At the end of the incubation period, the medium was removed from the wells and 20 μL of MTS (2 mg/mL in phosphate buffer saline, pH 6-6.5 and filter sterilized) and 1 μL of phenazine methosulfate (PMS, 3 mM in phosphate buffered saline, pH 7.3 and filter sterilized) was added to each well and the total volume was adjusted to 200 μL with complete medium. The plate was incubated for 2-4 hours in humidified 5% CO2 incubator at 37° C.
(§1) After completion of the drugs treatment i.e. at the end of 96 hours the plates were processed for MTS viability assay and the percent cytotoxicity was calculated as compared to control.
as §1
(§2) The human non-small cell lung carcinoma H-460 cells were seeded at a density of 1500 cells/well. […] After completion of the drugs treatment i.e. at the end of 120 hours the plates were processed for MTS viability assay and the percent cytotoxicity was calculated as compared to control.
as §2
The human non-small cell lung carcinoma H-460 cells were seeded at a density of 1500 cells/well. […] After completion of the drugs treatment i.e. at the end of 120 hours, the plates were processed for MTS viability assay and the percent cytotoxicity was calculated as compared to control.
(§3) After completion of the drugs treatment i.e. at the end of 48 hours the plates were processed for MTS viability assay and the percent cytotoxicity was calculated as compared to control.
The plates were processed for MTS viability assay and the percent cytotoxicity was calculated as compared to control.
as §3
The human non-small cell lung carcinoma H-460 cells were seeded at a density of 1500 cells/well. As per Table 16A the cells were first treated with either of the drugs alone i.e. with doxorubicin or flavopiridol alone. Doxorubicin treatment was for the first 24 hours followed by complete medium for 96 hours while in case of flavopiridol, the first 24 hours was in complete medium followed by flavopiridol for the next 96 hours. […] After completion of the drugs treatment i.e. at the end of 120 hours the plates were processed for MTS viability assay and the percent cytotoxicity was calculated as compared to control.
As per Table 16B the cells were first treated with either of the drugs alone i.e. with doxorubicin or flavopiridol alone. Flavopiridol treatment was for the first 96 hours followed by complete medium for 24 hours while in case of doxorubicin, the first 96 hours was in complete medium followed by doxorubicin for 24 hours. […] After completion of the drugs treatment i.e. at the end of 120 hours, the plates were processed for MTS viability assay and the percent cytotoxicity was calculated as compared to control.
The human non-small cell lung carcinoma H-460 cells were seeded at a density of 1500 cells/well.

Data set [2] deals with human pancreatic (Panc-1) cell line. The experiment in a line: In vitro cytotoxicity assay (MTS). Type of data set: cell-based. To be noted: then complete medium 72 hours.
The subject of data set [3] is pancreatic cells (Panc-1). The experiment in a line: Analysis of cell cycle distribution and flow cytometry (sub G1 apoptosis). The note with it: FIG. 3: 70 nM gemcitabine alone (24 hours); 300 nM compound A alone (72 hours); combination 70 nM gemcitabine (24 hours) followed by 300 nM compound A (72 hours). Format: cell-based, human. Background: A flow cytometer gives signals particle by particle.

Turning to `CN1CC[C@H](c2c(O)cc(O)c3c(=O)cc(-c4ccccc4Cl)oc23)[C@H](O)C1` [Flavopiridol], the “IC30 concentration after 48 hours treatment” value in data set [1] (H-460 cells, 48 hours treatment) turned out to be 200 nM. For the same molecule, in data set [1] (Homo sapiens, NCI-H460, 48 h, read-out: IC50 concentration after 48 hours treatment, H-460 cells, 48 hours treatment), the pIC50 is 6.46. For the same molecule, the cytotoxicity at 0.2 µM in data set [1] (Homo sapiens, NCI-H460, 120 h, Flavopiridol 200 nM alone for 120 hours) worked out at 39%. Further, the cytotoxicity at 0.35 µM in data set [1] (Homo sapiens, NCI-H460, 120 h, Flavopiridol 350 nM alone for 120 hours) came to 81%.

For the molecule `CC(=O)O[C@@]12CO[C@@H]1C[C@H](O)[C@@]1(C)C(=O)[C@H](O)C3=C(C)[C@@H](OC(=O)[C@H](O)[C@@H](NC(=O)OC(C)(C)C)c4ccccc4)C[C@@](O)([C@@H](OC(=O)c4ccccc4)[C@H]21)C3(C)C` [Docetaxel], the “% Cytotoxicity” value is 0% in data set [1] (Docetaxel 0.1 nM first 3 hours, 3000 cells/well) and 2% in data set [1] (Docetaxel 3 nM first 3 hours, 3000 cells/well).

On to `Nc1ccn([C@@H]2O[C@H](CO)[C@@H](O)C2(F)F)c(=O)n1` [Gemcitabine, 2′-deoxy-2′,2′-difluorocytidine], for which the “% Cytotoxicity” value is on record as 2% in data set [2] (Gemcitabine 30 nM first 24 hours), 18% in data set [2] (Gemcitabine 70 nM first 24 hours), 38% in data set [2] (Gemcitabine 100 nM first 24 hours) and 78% in data set [2] (Gemcitabine 200 nM first 24 hours). Also, the “apoptosis (sub G1 phase)” value in data set [3] came to 1.7%.

With `CC(=O)O[C@H]1C(=O)[C@@]2(C)[C@H]([C@H](OC(=O)c3ccccc3)[C@]3(O)C[C@H](OC(=O)[C@H](O)[C@@H](NC(=O)c4ccccc4)c4ccccc4)C(C)=C1C3(C)C)[C@]1(OC(C)=O)CO[C@@H]1C[C@@H]2O` [Paclitaxel], the “% Cytotoxicity” value in data set [1] (Paclitaxel 10 nM first 3 hours, 1500 cells/well) is on record as 10%.
